Data reported in US10004716B2, “Therapeutic/ preventive agent containing coumarin derivative as active ingredient” (NIPPON ZOKI PHARMACEUTICAL CO., LTD., priority 2014, dated 2018).

Experiments:
IL-6 gene expression = test: Suppression of IL-1α-induced gene expression of inflammation-related factors in bovine cartilage pieces (real time PCR): IL-6; format: cell-based; conditions: 20 μmol/L test substance 2 hours, then IL-1α 3 ng/mL 8 hours, n = 3
Experimental: Each 6 to 8 cartilage pieces (diameter: 4 mm) of bovine metacarpophalangeal joint were placed into each well of a 24-well plate and incubated for one night in 1 mL of a basal medium in a CO2 incubator which was set at 37° C. and 5% by volume of CO2. After that, they were incubated for 2 hours in a basal medium containing 20 μmol/L of a test substance and, after addition of human recombinant IL-1α (3 ng/mL) thereto, they were incubated for 8 hours more. After completion of the incubation, the culture medium was discarded, an RNA stabilizer was added to the cartilage pieces, the mixture was incubated at 4° C. for one night and the cartilage pieces were finely cut using scissors, placed into micro-tubes and stored with freezing until the extraction of RNA therefrom.
The cartilage pieces placed in the micro-tubes were pulverized using Tissue Lyser (QIAGEN) (at 25 Hz for 5 minutes; for two times), 1 mL of QIAzol Lysis Reagent (QIAGEN) was added thereto to suspend, 200 μL of chloroform was added thereto followed by mixing and the mixture was centrifuged (1500 rpm at 4° C.) to recover the supernatant liquid. Total RNA was extracted and purified using QIACube (QIAGEN) and RNeasy Micro Kit (QIAGEN). cDNA was prepared from the total RNA using Omniscript RT Kit (QIAGEN) and Oligo(dT)12-18 Primer (Invitrogen).
The cDNA synthesized from the total RNA extracted in the above (2) was used to measure the gene expression level of the inflammation-related factors [IL-1β, IL-6, COX-2 and iNOS (inducible nitric oxide synthase)] by a conventional real time PCR method using a fluorescent dye SYBR GREEN I (Roche Diagnostics) by a Light Cycler LC 480 (the same). A calibration curve was prepared by dilution of a PCR product quantified by a DNA quantitation kit (PicoGreen dsDNA Quantitiation Kit (Molecular Probes)) to an extent of 10^2˜10^7 copies/μL. From each of the resulting measured data, copy numbers per 10000 copies of glyceroaldehyde-3-phosphate dehydrogenase (GAPDH) which was an internal standard were calculated.

IL-1β gene expression = test: Suppression of LPS-induced gene expression of inflammation-related factors in THP-1 cells (real time PCR): IL-1β; format: cell-based, human; conditions: PMA-differentiated THP-1 cells; test substance 12.5 μmol/mL 2 hours, then LPS 10 mg/mL 3 hours; n = 3
Experimental: THP-1 cells were subjected to induction of differentiation for 72 hours with PMA (phorbol 12-myristate 13-acetate; 100 nM/L) and then the THP-1 cells (5×10^5 cells/mL) were incubated for 24 hours in a RPMI 1640+10% FCS culture solution in a 24-well plate. After that, a test substance was added so as to make the final concentration 12.5 μmol/mL followed by conducting the preincubation for 2 hours, a lipopolysaccharide (LPS) was then added thereto so as to make the final concentration 10 mg/mL and, after 3 hours, the cells were recovered.
QIAzol Lysis Reagent (QIAGEN) (1 mL) was added to the above to suspend, 200 μL of chloroform was added thereto followed by mixing and centrifugation (at 4° C. and 1500 rpm) was conducted whereby the supernatant liquid was recovered. Total RNA was extracted and purified by treating the supernatant liquid with QIACube (QIAGEN) and RNeasy Micro Kit (QIAGEN). cDNA was prepared from the total RNA using Omniscript RT kit (QIAGEN) and Oligo(dT)12-18 Primer (Invitrogen).
Gene expression level of the inflammation-related factors [IL-1β, IL-6 and monocyte chemotactic protein (MCP)-1] was measured by a conventional real time PCR method using a fluorescent dye SYBR GREEN I (Roche Diagnostics) by Light Cycler LC 480 (the same) using cDNA synthesized from the total RNA extracted in the above (2). A calibration curve was prepared by diluting the PCR product quantified by PicoGreen dsDNA Quantitation kit (Molecular probes) (a DNA quantitation kit) to an extent of 10^2˜10^7 copies/μL. From each of the resulting quantified values, copy numbers per 10000 copies of GAPDH gene being an internal standard were calculated.

[1] = system: rats suffering from degenerative intervertebral disk induced by nicotine; test: Duration of walking time (rotor rod) in rats with degenerative intervertebral disk induced by nicotine; format: in vivo; conditions: SD male rats, after 48 days from initiation of exposure to nicotine, 300 seconds maximum, per os once daily, n = 8, normal control 274.1, diseased control 147.7
Experimental: After 16 days from the purchase, SD male rats were organized into normal control group and nicotine group in terms of body weight, 50% reaction threshold value (measuring method will be mentioned later) and duration of walking time and, after 17 days from the purchase, exposure to nicotine was started for a nicotine group. Nicotine was prepared into 344.8 mg/mL using a physiological saline solution, filled into an osmotic pressure pump and retained under the skin of waist of rats. After 21 days from the retaining, an osmotic pressure pump into which a freshly-prepared nicotine solution was filled was retained under the skin of rats of five groups except the normal control group. Nicotine was prepared into […] using a physiological saline solution, filled into an osmotic pressure pump and retained under the skin of waist of the SD male rats.
After 13 days from exposure to nicotine, measurement of 50% reaction threshold value, duration of walking time and body weight were measured and a group organization was done into 6 groups of normal control group, diseased control group, compound 57-administered group, compound 58-administered group, compound 60-administered group and compound 68-administered group.
A test substance was suspended using 0.5 w/v % CMC and, together with stirring, 10 mL/kg of the suspension was repeatedly administered per os once daily after 14 to 52 or 53 days from the initiation of exposure to nicotine using an oral sonde for rats. To the normal control group and the diseased control group, 0.5 w/v % CMC was repeatedly administered per os in the same administration schedule and administration method.
Before the exposure to nicotine and after 48 days from the initiation of the exposure to nicotine, duration of waling time of rats was measured using a rotor rod for both rats and mice. A rotating speed was adjusted in such a manner that, when rotation was started in constant acceleration from the state where a rotor stopped, it reached 15 rotations per minute after 300 seconds. A rat was placed on a rotor which was in a stopped state, then the rotor was rotated, the time until the rat dropped was measured (300 seconds in maximum) and a mean value of three runs was determined.

| Structure (SMILES) | Copy Numbers per 10000 Copies of GAPDH IL-6 (IL-6 gene expression) | Copy Numbers per 10000 Copies of GAPDH IL-1β (IL-1β gene expression) | Duration of Walking Time [1] |
| --- | --- | --- | --- |
| O=c1oc2c(OS(=O)(=O)c3cccc(C(F)(F)F)c3)cccc2cc1NS(=O)(=O)c1ccc(C(F)(F)F)cc1 [Compound 68, 2-Oxo-3-[[4-(trifluoromethyl)phenyl]sulfonylamino]-chromen-8-yl 3-(trifluoromethyl)benzenesulfonate] | 16195.2 copies per 10000 copies of GAP | 24423.1 copies per 10000 copies of GAP | 189.2 s |
| O=c1oc2c(OS(=O)(=O)c3ccc(C(F)(F)F)cc3)cccc2cc1NS(=O)(=O)c1cccc(Br)c1 [Compound 58, 3-[(3-Bromophenyl)sulfonylamino]-2-oxochromen-8-yl 4-(trifluoromethyl)benzenesulfonate] | 9346.3 copies per 10000 copies of GAP | 31904.4 copies per 10000 copies of GAP | 210.9 s |
| O=c1oc2c(OS(=O)(=O)c3ccc(C(F)(F)F)cc3)cccc2cc1NS(=O)(=O)c1cccc(C(F)(F)F)c1 [Compound 57, 2-Oxo-3-[[3-(trifluoromethyl)phenyl]sulfonylamino]-chromen-8-yl 4-(trifluoromethyl)benzenesulfonate] | 7749.8 copies per 10000 copies of GAP | 30318.3 copies per 10000 copies of GAP | 187.3 s |
| O=c1oc2c(OS(=O)(=O)c3cccc(Br)c3)cccc2cc1NS(=O)(=O)c1cccc(C(F)(F)F)c1 [Compound 60, 2-Oxo-3-[[3-(trifluoromethyl)phenyl]sulfonylamino]-chromen-8-yl 3-bromobenzenesulfonate] | 9277.4 copies per 10000 copies of GAP | 29872.3 copies per 10000 copies of GAP | 208.4 s |
